Where two headings read alike, the source gives them in different places.
How the values were obtained:
Assay type in all cases: cell-based, human
[1] = system: p53-knockout HCT116 cell; assay: miR-34b/c expression in p53-knockout HCT116 cell treated with DAC and/or ADR; details: HCT116 cell in which p53 gene has been knocked out; DAC 2 μM, 72 hours; ADR 0.5 μg/ml, 24 hours; FIG. 5B
[2] = system: p53; details: HCT116 cell (WT); DAC 2 μM, 72 hours; ADR 0.5 μg/ml, 24 hours; FIG. 5C
[3] = system: p21; details: p53-knockout HCT116 cell (p53KO); DAC 2 μM, 72 hours; ADR 0.5 μg/ml, 24 hours; FIG. 5C
[4] = system: p53; details: p53-knockout HCT116 cell (p53KO); DAC 2 μM, 72 hours; ADR 0.5 μg/ml, 24 hours; FIG. 5C
[5] = system: HCT116 cell; assay: miR-34b/c expression in HCT116 cell treated with DAC and/or ADR; details: DAC 2 μM, 72 hours, ADR 0.5 μg/ml, 24 hours, FIG. 5A
Source text: U6 snRNA was used as an internal control.

[6] = system: p21; assay: Western-blotting of p21 expression in HCT116 cell (WT); details: DAC 2 μM, 72 hours, ADR 0.5 μg/ml, 24 hours, FIG. 5C
Source text: The expression of β-actin was confirmed as control, and the expression of p21 gene which is known as a representative target of p53 was similarly confirmed.

[7] = system: HCT116 cell; assay: Expression analysis of miRNAs (TaqMan miRNA Assay, real-time PCR) in HCT116 cell; details: DAC 2 μM, 72 hours
[8] = system: CDK4; assay: Western-blot analysis of CDK4 protein in HCT116 cell; details: anti-CDK4 antibody, vs control miRNA / mock, FIG. 13C
Source text: (§1) Furthermore, for foregoing genes, changes in protein level were verified by western-blot analysis using an anti-MET antibody (MET), anti-CDK4 antibody (CDK4), anti-SFRS2 antibody (SFRS2), and anti-actin antibody as control (actin), as shown in FIG. 13C. […] The result above also indicates a more marked decrease in protein level than in RNA level.

[9] = system: MET; assay: Western-blot analysis of MET protein in HCT116 cell; details: anti-MET antibody, vs control miRNA / mock, FIG. 13C
Source text: as §1

[10] = system: SFRS2 (splicing factor, arginine/serine-rich 2) gene; assay: Real-time RT-PCR (TaqMan Gene Expression Assay) of SFRS2 gene in HCT116 cells; details: miRNA by electroporation, RNA after 48 hours, vs control miRNA, DAC 2 μM, 72 hours vs mock, FIG. 13B
[11] = system: HCT116 cell; assay: Microarray analysis of gene expression in HCT116 cell; details: miRNA by electroporation, RNA after 48 hours, vs control miRNA, DAC 2 μM, 72 hours vs mock, FIG. 13A
Method: Firstly, in order to search for a gene whose expression is decreased by miR-34b/c expression, control miRNA (control miRNA (Ambion)), miR-34b (miR-34b precursor (Ambion)) and miR-34c (miR-34c precursor (Ambion)) were introduced into a HCT116 cell by electroporation, and after 48 hours RNA was extracted and subjected to microarray analysis.

[12] = system: SFRS2; assay: Western-blot analysis of SFRS2 protein in HCT116 cell; details: anti-SFRS2 antibody, vs control miRNA / mock, FIG. 13C
Source text: as §1

[13] = system: 9 colorectal cancer cell lines (CaCO2, Colo320, DLD1, HCT116, HT29, LoVo, RKO, SW48 and SW480); assay: BTG4 expression by RT-PCR in colorectal cancer cell lines treated with DAC; details: DAC 2 μM, 72 hours, FIG. 14A
[14] = system: (v-myb myeloblastosis viral oncogene homolog) gene; details: HCT116 cells, DAC 2 μM, 72 hours vs mock, FIG. 13B
[15] = system: CCNE2 (Cyclin E2) gene; assay: Real-time RT-PCR (TaqMan Gene Expression Assay) of CCNE2 gene in HCT116 cells; details: miRNA by electroporation, RNA after 48 hours, vs control miRNA, DAC 2 μM, 72 hours vs mock, FIG. 13B
[16] = system: 9 colorectal cancer cell lines (CaCO2, Colo320, DLD1, HCT116, HT29, LoVo, RKO, SW48 and SW480); assay: Expression analysis of miR-34b and miR-34c in colorectal cancer cell lines with DAC treatment; details: all 9 colorectal cancer cell lines
Source text: DKO2 cell was used as a control, and U6 snRNA was used as an internal control.
The expression level of miRNA was converted to the ratio of the expression level of each miRNA to that of U6 snRNA (i.e., the expression level of each miRNA/the expression level of U6 snRNA) and analyzed.

[17] = system: CDK4 (cyclin-dependent kinase 4) gene; assay: Real-time RT-PCR (TaqMan Gene Expression Assay) of CDK4 gene in HCT116 cells; details: miRNA by electroporation, RNA after 48 hours, vs control miRNA, DAC 2 μM, 72 hours vs mock, FIG. 13B
[18] = system: MET (hepatocyte growth factor receptor) gene; assay: Real-time RT-PCR (TaqMan Gene Expression Assay) of MET gene in HCT116 cells; details: miRNA by electroporation, RNA after 48 hours, vs control miRNA, DAC 2 μM, 72 hours vs mock, FIG. 13B
[19] = miRNA by electroporation, RNA after 48 hours, vs control miRNA

Row | Compound | miR-34b/c expression [5] | mRNA expression level of SFRS2 gene [10] | gene expression patterns (microarray) [11] | mRNA expression level of CCNE2 gene [15] | mRNA expression level of CDK4 gene [17] | mRNA expression level of MET gene [18] | mRNA expression level of MTB gene [14, 19] | other results
1 | COc1cccc2c1C(=O)c1c(O)c3c(c(O)c1C2=O)C[C@@](O)(C(=O)CO)C[C@@H]3O[C@H]1C[C@H](N)[C@H](O)[C@H](C)O1 [ADR, adriamycin] | induction of miR-34b/c expression was observed | – | – | – | – | – | – | miR-34b/c expression [1]: not at all; p53 expression (protein level) [2]: induced by ADR treatment; p21 expression [3]: neither p53 nor p21 was changed at all; p53 expression (protein level) [4]: neither p53 nor p21 was changed at all; expression of p21 gene, a p53 target [6]: also induced in similar pattern to that of p53
2 | Nc1ncn([C@H]2C[C@H](O)[C@@H](CO)O2)c(=O)n1 [DAC, 5-aza-2′-deoxycytidine] | induction of miR-34b/c expression was observed | decreased | also decreased by DAC treatment | decreased | decreased | decreased | – | expression of miRNAs (expression level of each miRNA/the expression level of U6 snRNA) ([7]; 157 miRNAs compared, FIG. 2): induced the expression of 37 miRNAs; expression levels of miRNA34b and miR-34c ([7]; FIG. 3A): restores their expression; expression level of CDK4 protein [8]: decreased; expression level of MET protein [9]: decreased; expression level of SFRS2 protein [12]: decreased; mRNA expression of BTG4 gene [13]: markedly increased (restored); mRNA expression level of MTB gene ([14]; […]): decreased; expression of miR-34b ([16]; FIG. 4A): induces the expression; expression of miR-34c ([16]; FIG. 4B): induces the expression
3 | miR-34b: miR-34b precursor (Ambion); matured type sequence UAGGCAGUGUCAUUAGCUGAUUG (SEQ ID NO: 2) (precursor form, further chemistry not given here) | – | decreased | a group of genes whose expression was decreased | decreased | decreased | decreased | decreased | –
4 | miR-34c: miR-34c precursor (Ambion); matured type sequence AGGCAGUGUAGUUAGCUGAUUGC (SEQ ID NO: 4) (precursor form, further chemistry not given here) | – | decreased | a group of genes whose expression was decreased | decreased | decreased | decreased | decreased | –
